Patent US8304427B2, “Acylthiourea compound or salt thereof, and use thereof” (Taiho Pharmaceutical Co., Ltd., priority 2008, dated 2012)
Where a name gives a salt, the structure may show the parent alone.

The compounds below were run against c-Met (Homo sapiens, UniProt P08581) (assay: c-Met inhibitory assay using AlphaScreen (Method A)). Conditions: ATP 20 μM.
Format: biochemical
Set-up: purchased Carna bio Co., Ltd 08-051
Method: Inhibitory activity of compounds against c-Met kinase was determined through the following procedures. Method A) c-Met inhibitory assay using AlphaScreen™
A biotinylated peptide including a phosphorylated site of Pyk2 (Tyr402), which is reported as a bio-substrate in Clin. Cancer Res. vol. […] The mixture was allowed to react at room temperature for 20 minutes. EDTA was added to the reaction mixture to a final concentration of 50 mM, to thereby terminate reaction. […] The reaction was done for one hour at room temperature. Thereafter, the fluorescence intensity from the reaction mixture was measured using a multi-label counter (EnVision™, Perkin Elmer).

Sequence of c-Met (P08581 956-1390 limits assumed): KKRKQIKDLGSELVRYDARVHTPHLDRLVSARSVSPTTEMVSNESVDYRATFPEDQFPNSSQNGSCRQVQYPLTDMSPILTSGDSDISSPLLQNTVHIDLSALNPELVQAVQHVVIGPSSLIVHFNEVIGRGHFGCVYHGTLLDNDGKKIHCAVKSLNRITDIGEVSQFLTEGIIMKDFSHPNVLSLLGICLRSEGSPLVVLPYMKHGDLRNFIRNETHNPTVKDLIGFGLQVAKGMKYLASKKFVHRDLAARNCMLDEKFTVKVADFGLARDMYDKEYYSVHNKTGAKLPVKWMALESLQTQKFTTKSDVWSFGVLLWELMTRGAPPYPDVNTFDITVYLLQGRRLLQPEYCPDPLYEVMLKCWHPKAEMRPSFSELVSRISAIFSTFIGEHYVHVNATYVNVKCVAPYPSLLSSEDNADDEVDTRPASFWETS

In order of falling IC50:
1. COc1cc2nccc(Oc3ccc(NC(=S)NC(=O)Cc4ccccc4)cc3F)c2cc1C(=O)NC1CCN(C(C)=O)CC1 [Example 18, N-(1-Acetylpiperidin-4-yl)-4-(2-fluoro-4-(3-(2-phenylacetyl)thioureido)phenoxy)-7-methoxyquinoline-6-carboxamide]  300 nM
2. CCC(O)CNC(=O)c1cc2c(Oc3ccc(NC(=S)NC(=O)Cc4ccc(F)cc4)cc3F)ccnc2cc1OC (stereo not drawn) [Example 23, 4-(2-Fluoro-4-(3-(2-(4-fluorophenyl)acetyl)thioureido)phenoxy)-N-(2-hydroxybutyl)-7-methoxyquinoline-6-carboxamide]  250 nM
3. COc1cc2nccc(Oc3ccc(NC(=S)NC(=O)Cc4ccccc4)cc3F)c2cc1C(=O)N[C@H](CO)c1ccccc1 [Example 29, (S)-4-(2-Fluoro-4-(3-(2-phenylacetyl)thioureido)phenoxy)-N-(2-hydroxy-1-phenylethyl)-7-methoxyquinoline-6-carboxamide]  234 nM
4. COc1cc2nccc(Oc3ccc(NC(=S)NC(=O)Cc4ccccc4)cc3F)c2cc1C(=O)NCC1COC(C)(C)O1 (stereo not drawn) [Example 2, N-((2,2-Dimethyl-1,3-dioxolan-4-yl)methyl)-4-(2-fluoro-4-(3-(2-phenylacetyl)thioureido)phenoxy)-7-methoxyquinoline-6-carboxamide]  167 nM
5. COc1cc2nccc(Oc3ccc(NC(=S)NC(=O)Cc4ccccc4)cc3F)c2cc1C(=O)NC1CCNCC1 [Example 14, 4-(2-Fluoro-4-(3-(2-phenylacetyl)thioureido)phenoxy)-7-methoxy-N-(piperidin-4-yl)quinoline-6-carboxamide dihydrochloride]  157 nM
6. COc1cc2nccc(Oc3ccc(NC(=S)NC(=O)Cc4ccccc4)cc3F)c2cc1C(=O)NCC1(O)CCOCC1 [Example 26, 4-(2-Fluoro-4-(3-(2-phenylacetyl)thioureido)phenoxy)-N-((4-hydroxytetrahydro-2H-pyran-4-yl)methyl)-7-methoxyquinoline-6-carboxamide]  125 nM
7. CNC(=O)c1cc2c(Oc3ccc(NC(=S)NC(=O)Cc4ccccc4)cc3F)ccnc2cc1OC [Example 6, 4-(2-Fluoro-4-(3-(2-phenylacetyl)thioureido)phenoxy)-7-methoxy-N-methylquinoline-6-carboxamide]  104 nM
8. COc1cc2nccc(Oc3ccc(NC(=S)NC(=O)Cc4ccccc4)cc3F)c2cc1C(=O)NCCN1CCOCC1 [Example 9, 4-(2-Fluoro-4-(3-(2-phenylacetyl)thioureido)phenoxy)-7-methoxy-N-(2-morpholinoethyl)quinoline-6-carboxamide]  102 nM
9. COc1cc2nccc(Oc3ccc(NC(=S)NC(=O)Cc4ccccc4)cc3F)c2cc1C(=O)Nc1ccccc1C [Example 28, 4-(2-Fluoro-4-(3-(2-phenylacetyl)thioureido)phenoxy)-7-methoxy-N-o-tolylquinoline-6-carboxamide]  94 nM
10. COc1cc2nccc(Oc3ccc(NC(=S)NC(=O)Cc4ccccc4)cc3F)c2cc1C(=O)NCCOCCO [Example 10, 4-(2-Fluoro-4-(3-(2-phenylacetyl)thioureido)phenoxy)-N-(2-(2-hydroxyethoxy)ethyl)-7-methoxyquinoline-6-carboxamide]  68 nM
11. COc1cc2nccc(Oc3ccc(NC(=S)NC(=O)Cc4ccccc4)cc3F)c2cc1C(=O)NC(CO)CO [Example 12, N-(1,3-Dihydroxypropan-2-yl)-4-(2-fluoro-4-(3-(2-phenylacetyl)thioureido)phenoxy)-7-methoxyquinoline-6-carboxamide]  52 nM
12. COc1cc2nccc(Oc3ccc(NC(=S)NC(=O)Cc4ccccc4)cc3F)c2cc1C(=O)NCC(=O)N1CCCC1 [Example 17, 4-(2-Fluoro-4-(3-(2-phenylacetyl)thioureido)phenoxy)-7-methoxy-N-(2-oxo-2-(pyrrolidin-1-yl)ethyl)quinoline-6-carboxamide]  30 nM
